Results on 28 compounds are retold here after patent US20230303552A1, “ARYLSULFONYL DERIVATIVES AND THEIR USE AS MUSCARINIC ACETYLCHOLINE RECEPTOR M5 INHIBITORS” (Vanderbilt University, priority 2020, published 2023).

Molecules are shown by their SMILES. pIC50: −log10 of the molar value.

In this test the target is T1, human M5 receptors (hM5) (Homo sapiens, UniProt P08912).
T1 construct: expressed in transfected cells
T1 sequence (P08912 1-532): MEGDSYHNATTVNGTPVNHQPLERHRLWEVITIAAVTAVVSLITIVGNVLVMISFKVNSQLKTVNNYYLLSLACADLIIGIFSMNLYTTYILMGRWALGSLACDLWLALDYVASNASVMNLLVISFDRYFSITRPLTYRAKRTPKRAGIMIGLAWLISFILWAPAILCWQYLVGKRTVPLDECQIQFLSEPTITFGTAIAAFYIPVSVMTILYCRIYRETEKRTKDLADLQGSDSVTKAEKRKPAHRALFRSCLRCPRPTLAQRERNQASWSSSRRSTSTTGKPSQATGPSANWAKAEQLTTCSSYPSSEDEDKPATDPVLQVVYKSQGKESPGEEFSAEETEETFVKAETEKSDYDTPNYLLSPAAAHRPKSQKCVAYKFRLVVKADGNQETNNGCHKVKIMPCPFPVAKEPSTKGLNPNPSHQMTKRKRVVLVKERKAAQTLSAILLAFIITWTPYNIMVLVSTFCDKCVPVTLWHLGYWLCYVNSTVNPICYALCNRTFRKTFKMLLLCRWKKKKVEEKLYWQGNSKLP
Nature of the test: Cell-based functional calcium mobilization assay of mAChR M5 activity (inhibition of EC80 acetylcholine response) in CHO cells. The note with it: CHO cells stably expressing hM5; for pIC50: calcium flux (Fluo-4), EC80 acetylcholine addition; for EC80 MIN: minimum of EC80 acetylcholine response, normalized to maximum acetylcholine response. In a few lines: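 CHO cells stably expressing human M5, loaded with Fluo-4 AM in HBSS/20 mM HEPES/2.5 mM probenecid pH 7.4. Compound added 140 s before acetylcholine EC20, then EC80 added 125 s later. Calcium flux normalized to maximal acetylcholine response; IC50 from ten-point curves in the EC80 window.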
For orientation: A change in cytosolic calcium serves as a functional read-out for many receptors and channels.

As a reminder, the pIC50 is −log10 of the IC50, conventionally taken in molar units. With `CC1(C(=O)Nc2ccc3scnc3c2)CCN(S(=O)(=O)c2ccc3ncsc3c2)CC1` [Compound 105, N-(benzo[d]thiazol-5-yl)-1-(benzo[d]thiazol-6-ylsulfonyl)-4-methylpiperidine-4-carboxamide], the pIC50 is below 5.00 and the “EC80 MIN” value is 25%.

On to `CC1(C(=O)Nc2ccc3scnc3c2)CCN(S(=O)(=O)c2ccc(Cl)nc2)CC1` [Compound 106, N-(benzol[d]thiazol-5-yl)-1-((6-chloropyridin-3-yl)sulfonyl)-4-methylpiperidine-4-carboxamide], for which the pIC50 was below 5.00 and the “EC80 MIN” value is reported as 35%.

Consider `CC1(C(=O)Nc2ccc3scnc3c2)CCN(S(=O)(=O)c2cccc3nsnc23)CC1` [Compound 107, 1-(benz.o[c][1.2.5]thiadiazol-4-ylsulfony1)-N-(benzo[d]thiazol-5-yl)-4-methylpiperidine-4-carboxamide], for which the pIC50 was below 5.00 and the “EC80 MIN” value was found to be 24%.

In the case of `O=C(Nc1ccc2scnc2c1)C1(F)CCN(S(=O)(=O)c2ccc3ncsc3c2)CC1` [Compound 108], the pIC50 was below 5.00 and the “EC80 MIN” value is given as 22%.

Regarding `Cc1nn(C)cc1S(=O)(=O)N1CCC(F)(C(=O)Nc2ccc3scnc3c2)CC1` [Compound 109, N-(benzo[d]thiazol-5-yl]-1-((1,3-dimethyl-1H-pyrazol-4-yl)sulfonyl)-4-fluoropiperidine-4-carboxamide], the negative logarithm of the IC50 (pIC50) was below 5.00 and the “EC80 MIN” value stood at 9%.

`Cn1cnc2cc(NC(=O)C3CCN(S(=O)(=O)c4ccc5c(c4)CCO5)CC3)ccc21` [Compound 110, 1-((2,3-dihydrobenzofuran-5-yl)sulfonyl)-N-(1-methyl-1H-benzo[d]imidazol-5-yl)piperidine-4-carboxamide]: the pIC50 was below 5.00 and the “EC80 MIN” value is on record as 53%.

Consider `C[C@@H]1CN(S(=O)(=O)c2ccc3c(c2)CCO3)C[C@@H]1C(=O)Nc1ccc2scnc2c1` [Compound 111, (3R,4S)-N-(benzo[d]thiazol-5-yl)-1-((2,3-dihydrobenzofuran-5-yl)sulfonyl)-4-methylpyrrolidine-3-carboxamide], for which the pIC50 is 7.42 and the “EC80 MIN” value is recorded as 3%.

With `Cc1nn(C)cc1S(=O)(=O)N1CCC(C)(C(=O)Nc2ccc3scnc3c2)CC1` [Compound 112, N-(benzo[d]thiazol-5-yl)-1-((1,3-dimethyl-1H-pyrazol-4-yl)sulfonyl)-4-methylpiperidine-4-carboxamide], the pIC50 was below 5.00 and the “EC80 MIN” value was determined as 58%.

Take `O=C(Nc1ccc2scnc2c1)C1(F)CCN(S(=O)(=O)c2ccc3c(c2)CCO3)CC1` [Compound 113, N-(benzo[d]thiazol-5-yl)-1-((2.3-dihydrobenzofuran-5-yl)sulfonyl)-4-fluoropiperidine-4-carboxamide]: the pIC50 was 6.15 and the “EC80 MIN” value is on record as 10%.

Turning to `O=C(Nc1ccc2scnc2c1)C1(F)CCN(S(=O)(=O)c2cccnc2)CC1` [Compound 114, N-(benzo[d]thiazol-5-yl)-4-fluoro-1-(pyridin-3-ylsulfonyl)piperidine-4-carboxamide], the pIC50 is 5.69 and the “EC80 MIN” value was 4%.

Regarding `O=C(Nc1ccc2scnc2c1)C1(F)CCN(S(=O)(=O)c2cccc3nsnc23)CC1` [Compound 115, 1-(benzo[c][1,2,5]thiadiazol-4-ylsulfonyl)-N-(benzo[d]thiazol-5-yl)-4-fluoropiperidine-4-carboxamide], the pIC50 is below 5.00 and the “EC80 MIN” value is on record as 51%.

For the compound `Cc1ccc(S(=O)(=O)N2CCC(C(=O)Nc3ccc4scnc4c3)CC2)cn1` [Compound 124], the pIC50 is 6.98 and the “EC80 MIN” value came out at 3%.

Turning to `CC1(C)COc2ccc(S(=O)(=O)N3CCC(C(=O)Nc4ccc5scnc5c4)CC3)cc21` [Compound 126, N-(benzo[d]thiazol-5-yl)-1-((3,3-dimethyl-2,3-dihydrobenzofuran-5-yl)sulfonyl)piperidine-4-carboxamide], the pIC50 is below 5.00 and the “EC80 MIN” value is recorded as 55%.

For `CC1(C)COc2ccc(S(=O)(=O)N3CC[C@@H](C(=O)Nc4ccc5scnc5c4)C3)cc21` [Compound 127, (R)-N-(benzo[d]thiazol-5-yl)-1-((3,3-dimethyl-2,3-dihydrobenzofuran-5-yl)sulfonyl)pyrrolidine-3-carboxamide], the pIC50 is below 5.00 and the “EC80 MIN” value is listed as 8%.

Turning to `C[C@H]1CN(S(=O)(=O)c2ccc3c(c2)C(C)(C)CO3)C[C@@H]1C(=O)Nc1ccc2scnc2c1` [Compound 128, (3R,4R)-N-(benzo[d]thiazol-5-yl)-1-((3,3-dimethyl-2,3-dihydrobenzofuran-5-yl)sulfonyl)-4-methylpyrrolidine-3-carboxamide], the pIC50 was below 5.00 and the “EC80 MIN” value is listed as 29%.

Regarding `C[C@@H]1CN(S(=O)(=O)c2ccc3c(c2)C(C)(C)CO3)C[C@@H]1C(=O)Nc1ccc2scnc2c1` [Compound 129], the pIC50 was 5.19 and the “EC80 MIN” value is 4%.

Consider `O=C(Nc1ccc2cccnc2c1)C1CCN(S(=O)(=O)c2ccc3c(c2)CCO3)CC1` [Compound 135, 1-((2,3-dihydrobenzofuran-5-yl)sulfonyl)-N-(quinolin-7-yl)pipcridinc-4-carboxamide], for which the pIC50 is 5.74 and the “EC80 MIN” value stood at 3%.

Turning to `O=C(Nc1ccc2scnc2c1)[C@@H]1CCN(S(=O)(=O)c2ccc3ncsc3c2)C1` [Compound 136, (R)-N-(benzo[d]thiazol-5-yl)-1-(benzo[d]thiazol-6-ylsulfonyl)pyrrolidine-3-carboxamide], the pIC50 is 6.54 and the “EC80 MIN” value is reported as 2%.

Regarding `Cc1nn(C)cc1S(=O)(=O)N1CC[C@@H](C(=O)Nc2ccc3scnc3c2)C1` [Compound 137, (R)-N-(benzo[d]thiazol-5-yl)-1-((1,3-dimethyl-1H-pyrazol-4-yl)sulfonyl)pyrrolidine-3-carboxamide], the pIC50 was below 5.00 and the “EC80 MIN” value was 6%.

Regarding `CC1(C)CN(S(=O)(=O)c2ccc3c(c2)CCO3)CCC1C(=O)Nc1ccc2scnc2c1` (centres unmarked) [Compound 138, N-(benzo[d]thiazol-5-yl)-1-((2,3-dihydrobenzofuran-5-yl)sulfonyl)-3,3-dimethylpiperidine-4-carboxamide], the pIC50 is below 5.00 and the “EC80 MIN” value is on record as 7%.

With `[2H]C1([2H])Oc2ccc(S(=O)(=O)N3CCC(C(=O)Nc4ccc5scnc5c4)CC3)cc2C1([2H])[2H]` [Compound 139, N-(benzo[d]thiazol-5-yl)-1-((2,3-dihydrobenzofuran-5-yl-2,2,3,3-d4)sulfonyl)piperidine-4-carboxamide], the negative-log IC50 (pIC50) is 7.12 and the “EC80 MIN” value was 2%.

In the case of `[2H]C1([2H])Oc2ccc(S(=O)(=O)N3CC[C@@H](C(=O)Nc4ccc5scnc5c4)C3)cc2C1([2H])[2H]` [Compound 140], the pIC50 was 7.46 and the “EC80 MIN” value came to 2%.

With `CC1(C)CN(S(=O)(=O)c2ccc3ncsc3c2)CCC1C(=O)Nc1ccc2scnc2c1` (centres unmarked) [Compound 141, N-(benzo[d]thiazol-5-yl)-1-(benzo[d]thiazol-6-ylsulfonyl)-3,3-dimethylpiperidine-4-carboxamide], the pIC50 is below 5.00 and the “EC80 MIN” value amounted to 38%.

As to `CC1(C)CN(S(=O)(=O)c2ccc(Cl)nc2)CCC1C(=O)Nc1ccc2scnc2c1` (centres unmarked) [Compound 142], the pIC50 is 5.35 and the “EC80 MIN” value is 3%.

With `Cc1nn(C)cc1S(=O)(=O)N1CCC(C(=O)Nc2ccc3scnc3c2)C(C)(C)C1` (centres unmarked) [Compound 143, N-(benzo[d]thiazol-5-yl)-1-((1,3-dimethyl-1H-pyrazol-4-yl)sulfonyl)-3,3-dimethylpiperidine-4-carboxamide], the pIC50 was below 5.00 and the “EC80 MIN” value is 40%.

On to `CC1(C)CN(S(=O)(=O)c2cc3c(cc2F)OCC3)CCC1C(=O)Nc1ccc2scnc2c1` (centres unmarked) [Compound 144, N-(benzo[d]thiazol-5-yl)-1-((6-fluoro-2,3-dihydrobenzofuran-5-yl)sulfonyl)-3,3-dimethylpiperidine-4-carboxamide], for which the pIC50 is below 5.00 and the “EC80 MIN” value was 25%.

As to `O=C(Nc1ccc2scnc2c1)C1CCN(S(=O)(=O)c2cc3c(cc2F)OCC3)CC1(F)F` (centres unmarked) [Compound 147, N-(benzo[d]thiazol-5-yl)-3,3-difluoro-1-((6-fluoro-2.3-dihydrobenzofuran-5-yl)sulfonyl)piperidine-4-carboxamide], the pIC50 is 6.39 and the “EC80 MIN” value is listed as 2%.

In the case of `[2H]C1([2H])Oc2ccc(S(=O)(=O)N3C[C@@H](C)[C@@H](C(=O)Nc4ccc5scnc5c4)C3)cc2C1([2H])[2H]` [Compound 148, (3R,4S)-N-(benzo[d]thiazol-5-yl)-1-((2,3-dihydrobenzofuran-5-yl-2,2,3,3-d4)sulfonyl)-4-methylpyrrolidine-3-carboxamide], the pIC50 is 7.52 and the “EC80 MIN” value came out at 3%.
